Values of other authors as cited in US8545863B2, “Insecticides for agricultural and horticultural crops” (Globachem, priority 2009, dated 2013).

System: apple scab (V. inequalis)

O=C([O-])O.[K+] [Potassium bicarbonate, potassium bicarbonate]
decreasing fruit and leaf scab (apple scab): effective

[Ca+2].[OH-].[OH-] [calcium hydroxide]
concentration preventing germination of spores and killing the spore sacks (asci) (apple scab (V. inequalis)): 4.3 g/L
